Results as given in patent US4508728A, “Method of treating inflammatory diseases” (priority 1984, dated 1985).

Experiments:
[1] = test system: inflammation of respiratory tract; experiment: Clinical Case No. 8: inflammation of respiratory tract, nebulizer; type: in vivo, human; parameters: key: -: Non effective; +: Effective; ++: Remarkably effective; details: 0.1% solution
Text: 0.1% homocarnosine solution in physiological saline was used for the following patients suffering from inflammation of respiratory tract with the aid of nebulizer.

herpes zoster = experiment: Clinical Case No. 4: herpes zoster; type: in vivo, human; details: person
Text: 5% homocarnosine paste was applied to a case of herpes zoster.
Region: The herpes zoster extended from the lower part of right breast to the side of body.
Course of the complaint: The patient came for consultation after three days of subjective complaint. 1 g of 5% homocarnosine paste was applied to the diseased region.

aftha stomatitis = experiment: Clinical Case No. 2: aftha stomatitis; type: in vivo, human; parameters: key: The patients in whom the pain disappeared immediately after injection of homocarnosine solution with no subsequent pain complaints on the following day, and the ulcerated area had shrunk postoperatively were assessed as favorable ++; details: 0.1 ml of 0.5% solution injected
Procedure: Patients who complained of the aftha stomatitis were injected with 0.5% homocarnosine solution.
The patients in whom the pain disappeared immediately after injection of homocarnosine solution with no subsequent pain complaints on the following day, and the ulcerated area had shrunk postoperatively were assessed as favorable ++.

surgical wounds = experiment: Wound healing: tensile strength of sutured surgical incision on the 7th day; type: in vivo, rat (Wister strain male); details: for Tensile Strength, % of control / Tensile Strength, X ± S.E.: daily for 7 days
Procedure: The healing effect of surgical wounds by homocarnosine was assessed in the following manner. Six-week old Wister strain male rats weighing around 170 g each were used. The rats which had their backs denuded over an extensive area by clippers were given an incision of about 4 cm by a sharp surgical knife along the dorsal medial line under ether anesthesia. A dosage of penicillin was administered to prevent the possibility of infective suppuration and the incision was uniformly sutured with silk threads at 3 spots. Homocarnosine was made into isotonic solution which was subcutaneously injected every day into 8 places on both sides of the incision equally for 7 days. Physiologic saline was employed as a control. The threads were removed 4 days after the formation of the incisions and the experimental animals were put to death on the 7th day under ether anesthesia, and 3 pieces of dosal skin, 3 cm in length and 1 cm in width each, were surgically cut off in such manner that the incision line lay at the middle of the piece. One side of each piece of skin was fixed and the other was pulled and the force required to separate the skin at the point the incision had been made was taken to indicate the tensile strength.

Solubility in water = type: physicochemical
dental extraction wounds = experiment: Clinical Case No. 1: dental extraction wound; type: in vivo, human; parameters: key to Cure (Wound Healing): ++: Found to be highly effective compared with ordinary therapy.; +: Effective; -: Noneffective; key to Postoperative pains, 2 hours / Postoperative pains, 12 hours / Postoperative pains, 24 hours: -: No subjective pains.; ±: Though subjective pains were present, no analgesic was used.; +: Subjective pains and an analgesic was administered
Procedure: 0.5% homocarnosine injection solution was administered to the wound brought about by a dental extraction.

cervical erosion = experiment: Clinical Case No. 5: cervical erosion; type: in vivo, human; details: suppository 20 mg
Procedure: 1.7 g suppository, one suppository containing 20 mg homocarnosine, was used for the following patients suffering from cervical erosion.

granulation = experiment: Granulation formation, formalin filter paper method (FFP method), with quantitative analysis of hydroxyprolin; type: in vivo, rat (Wister strain male); details: for Hydroxyproline / Wet weight of granulation: once daily for 7 days
Text: The promotive action of granulation by homocarnosine was examined by a routine formalin filter paper method (FFP method) and the quantitative analysis of hydroxyprolin. For experimental purposes, use was made of groups of 5 or 6 six-week old Wister strain male rats weighing around 170 g each. The hair was sheared from the backs of these animals using clippers and under ether anesthesia they were given an incision of about 1 cm by a shap surgical knife along the dorsal median line. A piece of filter paper (No. 26 product by Toyo Filter Paper Co.) was cut into circles having a diameter of 6.7 mm which were immersed in a 7% formalin solution. In each rat, these filter paper circles, 4 altogether, were inserted underneath the skin of the right and left scapular areas and under the skin about 4 cm to the rear or these areas, two circles on the right side and two on the left side. A dose of penicillin was given to prevent the possibility of infective suppuration subcutaneously and the incised portion was sutured by use of clips. On the second day after the insertion of formalin immersed filter paper, the sutures were removed and on the seventh day they were put to death under ether anesthesia by cutting the carotid vessels, from which the mass of granulations that had been formed by formalin immersed filter paper was taken out. After the entire granular mass containing filter paper was measured for wet weight, the mass from the left scapular area was used for the quantitative analysis of hydroxyprolin. Homocarnosine was prepared in an isotonic solution and was injected into the animals either subcutaneously or peritoneally once daily for seven days after the suture. When an oral administration was needed, it was made in a 15% solution and was poured into the esophagus. The mass of granulations freed from the filter paper was defatted by ethanol-ether and after being rendered in the gelatin state by an autoclave it was added with concentrated hydrochloric acid and was hydrolyzed overnight at a temperature of 105° to 110° C. After it was thickened and dried at 105° to 110° C., the product was added with 0.02N hydrochloric acid and its hydroxyprolin was quantified by a Hitachi-835 amino acid automatic analyzer in an effort to estimate the amount of collagen that had been synthesized.

angulus infectiosus = experiment: Clinical Case No. 3: angulus infectiosus; type: in vivo, human; parameters: key: those cases in which the wounds became closed on the day following homocarnosine administration were judged as ++; those in which three applications were further needed before favorable results were obvious were judged as +
Text: 0.5% homocarnosine in the form of a paste was applied in cases of angulus infectiosus in a dosage of 0.8 g on the basis of three times daily.
In assessing the effect of treatment, those cases in which the wounds became closed on the day following homocarnosine administration were judged as ++ and those in which three applications were further needed before favorable results were obvious were judged as +.

decubital ulcer = experiment: Clinical Case No. 6: decubital ulcer; type: in vivo, human; parameters: key: -: Non effective; +: Effective; ++: Remarkably effective
Text: 1% homocarnosine ointment was applied to the cases of decubital ulcer as follows.

dermatitis = experiment: Clinical Case No. 9: various types of dermatitis; type: in vivo, human; parameters: key to Effect: -: Non effective; +: Effective; ++: Remarkably effective
Text: 0.5% homocarnosine in the form of an ointment was applied to the following patients suffering from various types of dermatitis.

hemorrohoid = experiment: Clinical Case No. 7: hemorrhoid; type: in vivo, human; parameters: key: -: Non effective; +: Effective; ++: Remarkably effective; details: suppository 10 mg
Procedure: 1.7 g suppository, one suppository containing 10 mg homocarnosine, was used for the following patients suffering from hemorrohoid.
*Conjointly administered with 0.5% homocarnosine ointment.

[2] = case 1, horizontal impaction, 0.3 ml of 0.5% injection solution
[3] = case 2, alveolar osteitis, 0.3 ml of 0.5% injection solution
[4] = case 3, traumatic bone fracture, 0.1 ml of 0.5% injection solution
[5] = case 4, dental root cyst, 0.2 ml of 0.5% injection solution
[6] = case 5, alveolar osteitis, 0.3 ml of 0.5% injection solution

## NCCCC(=O)N[C@@H](Cc1cnc[nH]1)C(=O)O [Homocarnosine, L-histidinyl-γ-aminobutylic acid]
[1]; case 1, allergic rhinitis, 0.8 ml × 2
  Effect: ++
[1]; case 2, inflamed respiratory tract, 1.0 ml × 1
  Effect: ++
[1]; case 3, inflamed respiratory tract, 1.0 ml × 3
  Effect: ++
[1]; case 4, tonsillitis, 1.0 ml × 3
  Effect: ++
[1]; case 5, asthma, 1.0 ml twice daily for 10 days
  Effect: ++
Herpes zoster; 1 g of 5% paste
  Relapse: no relapse of the symptom
Herpes zoster; 1 g of 5% paste, in about one hour
  Pains: the pains disappeared completely
Herpes zoster; 5% paste, 1 g five times daily
  Cysts: discolored and dry
  Herpes symptom: cured after seven days
Aftha stomatitis; case 1, isolative aphtha
  Effect: ++
Aftha stomatitis; case 2, tip of the tongue, person
  Effect: ++
Aftha stomatitis; case 3, lower surface of the tongue, person
  Effect: ++
Surgical wounds; 0.06 mg/rat i.d., 18 skins
  Tensile Strength, % of control: 96.1 % of control
  Tensile Strength, X ± S.E.: 436.8 ± 27.6
Surgical wounds; 0.6 mg/rat i.d., 15 skins
  Tensile Strength, % of control: 108.6 % of control
  Tensile Strength, X ± S.E.: 493.3 ± 27.5
Surgical wounds; 6.0 mg/rat i.d., 18 skins
  Tensile Strength, % of control: 118.8 % of control
Surgical wounds; 6.0 mg/rat i.d., 18 skins, p < 0.01
  Tensile Strength, X ± S.E.: 539.6 ± 41.5
Surgical wounds; subcutaneous, 0.6 and 6.0 mg/rat
  Effect on surgical wounds, tensile strength on the 7th day (in words): efficacy is indicated by the tensile strength of wounds on the 7th day
Solubility in water
  Solubility in water: readily soluble in water
Dental extraction wounds; [2]
  Cure (Wound Healing): ++
  Postoperative pains, 2 hours: -
  Postoperative pains, 12 hours: ±
  Postoperative pains, 24 hours: -
Dental extraction wounds; [3]
  Cure (Wound Healing): ++
  Postoperative pains, 2 hours: -
  Postoperative pains, 12 hours: -
  Postoperative pains, 24 hours: -
Dental extraction wounds; [4]
  Cure (Wound Healing): ++
  Postoperative pains, 2 hours: -
  Postoperative pains, 12 hours: -
  Postoperative pains, 24 hours: -
Dental extraction wounds; [5]
  Cure (Wound Healing): ++
  Postoperative pains, 2 hours: -
  Postoperative pains, 12 hours: +
  Postoperative pains, 24 hours: -
Dental extraction wounds; [6]
  Cure (Wound Healing): ++
  Postoperative pains, 2 hours: -
  Postoperative pains, 12 hours: -
  Postoperative pains, 24 hours: -
Cervical erosion; case 1, C II, 2 tablets in one day
  Effect (in words): Cured
Cervical erosion; case 2, C IIIa, 1 tablet daily for 7 days
  Effect (in words): Cured
Cervical erosion; case 3, C IIIb, 2 tablets daily for 7 days
  Effect (in words): Cured
Cervical erosion; case 4, C IIIc, 2 tablets daily for 14 days
  Effect (in words): Cured
granulation; 3 mg/kg i.p., 7 granuloma
  Hydroxyproline: 97.8 ± 10.1 % of control
granulation; 3 mg/kg i.p., 18 granuloma
  Wet weight of granulation: 96.1 ± 5.6 % of control
granulation; 10 mg/kg i.p., 9 granuloma
  Hydroxyproline: 127.6 ± 14.5 % of control
granulation; 10 mg/kg i.p., 20 granuloma, p < 0.01
  Wet weight of granulation: 121.3 ± 5.7 % of control
granulation; 30 mg/kg i.p., 8 granuloma
  Hydroxyproline: 123.9 ± 8.0 % of control
granulation; 30 mg/kg i.p., 19 granuloma, p < 0.025
  Wet weight of granulation: 126.6 ± 7.3 % of control
granulation; 50 mg/kg i.p., 20 granuloma
  Wet weight of granulation: 133.7 ± 7.2 % of control
granulation; 70 mg/kg i.p., 24 granuloma
  Wet weight of granulation: 131.7 ± 7.8 % of control
granulation; 90 mg/kg i.p., 20 granuloma
  Wet weight of granulation: 135.6 ± 7.2 % of control
granulation; 10, 30, 50, 70 and 90 mg/kg (i.p.)
  Granulation formation (in words): effective in promoting granulation formation
granulation; relative to wet weight of granulations
  Hydroxyprolin amount (in words): increased in proportion to an increase in the wet weight of granulations
Angulus infectiosus; person five, right, 0.5% paste 0.8 g × 3
  Effect: ++
Angulus infectiosus; person four, right and left, 0.5% paste 0.8 g × 6
  Effect: +
Angulus infectiosus; person one, right, 0.5% paste 0.8 g × 3
  Effect: ++
Angulus infectiosus; person three, right, 0.5% paste 0.8 g × 3
  Effect: ++
Angulus infectiosus; person two, right and left, 0.5% paste 0.8 g × 6
  Effect: +
Angulus infectiosus; person, left, 0.5% paste 0.8 g × 3
  Effect: ++
Decubital ulcer; case 1, back (2 × 4 cm), 1% ointment 0.5-1.0 g once daily for 4 days
  Effect: ++
Decubital ulcer; case 2, nates (2 × 3 cm), 1% ointment 0.5-1.0 g once daily for 8 days
  Effect: ++
dermatitis; case 1, allergic dermatitis, 0.5% ointment 1.0 g twice daily
  Effect: ++
dermatitis; case 2, geriatric itchiness, 0.5% ointment 0.5 g before sleeping
  Effect: ++
dermatitis; case 2, geriatric itchiness, 0.5% ointment 0.5 g, partial, after one application
  Partial ulcer recovery (in words): ulcer recovery was noted
dermatitis; case 3, eczema, 0.5% ointment 1.0 g twice daily for 2 days
  Effect: ++
dermatitis; case 4, burn (back of left hand), 0.5% ointment 1.0 g once daily for 4 days
  Effect: ++
hemorrohoid; case 1, ractal bleeding, 1 tablet daily for 4 days, conjointly with 0.5% homocarnosine ointment
  Effect: ++
hemorrohoid; case 2, inner hemorrhoids, 1 tablet daily for 14 days
  Effect: ++
